Test in all cases: growth of human tumour cells (NCI), 48 h
For experiment [1], the system named is A498 renal.
Experiment [2] concerns HCT-15 colon.
The test system of experiment [3] is HOP-62 NSCLC.
Experiment [4] relates to HOP-92 NSCLC.
For experiment [5], the system named is OVCAR-5 ovarian.
Experiment [6] concerns SF-268 CNS.
In experiment [7] the test system is SF-539 CNS.
The subject of experiment [8] is SK-OV-3 ovarian.
Experiment [9] has as its system SN12C renal.
The test system of experiment [10] is HL-60(TB) leukemia.

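All cell lines were grown in 96-well plates and treated with compound for 48 hours. The concentration for 50% growth inhibition is given as GI50. TGI: total growth inhibition.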 A value given as a limit tells only on which side of the number the result lay.

The text below walks through data of PubChem BioAssay (NCI).

As to `COc1ccc2c(c1)c(=O)oc1cc(OC/C(=N\O)c3ccc(F)cc3)ccc12`, the GI50 in [1] was 16.7 µM; in [2], 20.5 µM; in [3] it was 18.9 µM; in experiment [4], 24.9 µM; in experiment [5], 34.4 µM; in experiment [6] it was 24.9 µM. Also, the GI50 in experiment [7] is 21.4 µM; in experiment [8], 30.4 µM; in [9], 16.9 µM. Further, the TGI is 35.3 µM in [1]; 61.2 µM in experiment [2]; 41.8 µM in [3]; 72.2 µM in experiment [4]; more than 100 µM in experiment [5]; more than 100 µM in [6]. Also, the TGI in experiment [7] is 40.9 µM; in [8] it was more than 100 µM; in experiment [9], 34.3 µM.
Regarding `COc1ccc(OC)c(/C=C/c2cnnc3ccccc23)c1`, the TGI in [2], in experiment [10], in [3], in [4], in [5] and in experiment [6] was more than 10 µM throughout. The figures for the TGI in experiment [7], in experiment [8] and in experiment [9] were 8.62 µM, more than 10 µM and more than 10 µM, respectively.
Turning to `Cc1ccc(S(=O)(=O)C2=C3C(=C(c4ccccc4)c4ccccc43)CN(S(=O)(=O)c3ccc(C)cc3)C2)cc1`, the GI50 was 2.32 µM in experiment [2]; 11.2 µM in experiment [10]; 15.4 µM in [3]; 1.86 µM in experiment [4]; 25.4 µM in experiment [5]; 2.6 µM in experiment [6]. Also, the values for the GI50 in [7], in experiment [8] and in experiment [9] were 10.9 µM, more than 100 µM and 3.04 µM, respectively. In addition, the TGI in [2] is 16.3 µM; in experiment [10] it was more than 100 µM; in experiment [3], 51.9 µM; in [4] it was 13.8 µM; in experiment [5], more than 100 µM; in experiment [6], 12.9 µM. For the same compound, the TGI in experiment [7] is 49 µM; in experiment [8], more than 100 µM; in experiment [9], 20.1 µM.
Regarding `O=c1[nH]c(C2CCCCC2)nc2cc(Cl)ccc12`, the TGI in [2] was more than 100 µM; in experiment [4], 94.3 µM; in experiment [5] it was more than 100 µM; in [6], more than 100 µM; in [7], more than 100 µM; in [8], more than 100 µM. In experiment [9], the TGI was more than 100 µM.
Regarding `O=C1[C@H](c2ccccc2)C2c3ccccc3CCN12` (stereo not given in full), the GI50 in experiment [1], in [2], in experiment [10], in [3], in experiment [5] and in [6] was more than 100 µM each time. The GI50 in experiment [7], in [8] and in experiment [9] was more than 100 µM in each case. Besides, the TGI in experiment [1], in [2], in [10], in [3], in [5] and in [6] was more than 100 µM in each case. In addition, the TGI in experiment [7], in experiment [8] and in experiment [9] was more than 100 µM each time.
With `COc1ccc2c(c1)CC[C@@H]1[C@@H]2CC[C@]2(C)c3c(cc(C(=O)c4ccccc4)c4sccc34)C[C@@H]12`, the GI50 was more than 100 µM in experiment [1]; more than 100 µM in [2]; 6.73 µM in [10]; more than 100 µM in experiment [3]; 60.7 µM in experiment [5]; more than 100 µM in experiment [6]. Further, the GI50 in experiment [7], in experiment [8] and in experiment [9] was more than 100 µM each time. Moreover, the TGI in [1], in experiment [2], in experiment [10], in experiment [3], in experiment [5] and in [6] was more than 100 µM each time. Moreover, the TGI in experiment [7], in [8] and in [9] was more than 100 µM in each case.
Consider `CCOCC[P+](c1ccccc1)(c1ccccc1)c1ccccc1`, for which the GI50 in [1] was 17.6 µM; in experiment [2], 73.8 µM; in [10], 12.2 µM; in experiment [3], 29.7 µM; in experiment [5], 25.9 µM; in [6], 27.3 µM. Besides, the GI50 in experiment [7] was 23.2 µM; in experiment [8], 20.1 µM; in experiment [9] it was 24.6 µM. Besides, the TGI in [1] is 64.2 µM; in experiment [2] it was more than 100 µM; in experiment [10], 36 µM; in [3] it was more than 100 µM; in experiment [5], more than 100 µM; in experiment [6], more than 100 µM. Besides, the TGI in experiment [7] is more than 100 µM; in [8] it was 79.8 µM; in experiment [9], more than 100 µM.
Turning to `COc1ccc2c(c1)N(CCO)C1=C(C(=O)OC1)C2c1cccc(Br)c1` (stereo not given), the GI50 was 0.0293 µM in experiment [1]; 0.0659 µM in experiment [2]; 0.0671 µM in experiment [10]; 0.132 µM in experiment [3]; 0.466 µM in experiment [5]; 0.0864 µM in experiment [6]. For the same compound, the GI50 is 0.0498 µM in [7], 0.0913 µM in experiment [8] and 0.45 µM in experiment [9]. Besides, the TGI in experiment [1] was 1.21 µM; in experiment [2], more than 100 µM; in experiment [10], 0.601 µM; in experiment [3], more than 76.3 µM; in [5], more than 100 µM; in [6] it was 21.3 µM. The TGI in experiment [7] is 0.859 µM; in [8], 19 µM; in [9] it was more than 88.1 µM.
On to `Clc1cccc(Cc2cn3cc(-c4ccccc4)nc3s2)c1`, for which the GI50 in experiment [10] is 9.13 µM; in experiment [3] it was 9.1 µM; in [4], 11.5 µM; in experiment [5], 66.8 µM; in experiment [6], 12.8 µM; in [7], 8.31 µM. The GI50 was 39.6 µM in experiment [8] and 7.41 µM in experiment [9]. Further, the TGI in [10] was more than 100 µM; in experiment [3] it was 40.5 µM; in [4], 34.3 µM; in [5], more than 100 µM; in experiment [6] it was more than 100 µM; in experiment [7], more than 100 µM. Moreover, the TGI in [8] and in experiment [9] was more than 100 µM throughout.
